Laboratory results taken from patent US20250163119A1, “COMPOUNDS FOR THE TREATMENT OF DIABETES OR OBESITY” (Eli Lilly and Company, priority 2023, published 2025).
*1 amine or outer side, *2 acyl side, *3 side chain or, on linkers, in order; H or OH if unused. Where a SMILES comes first, the peptide text is derived from it. Side-chain parts run from the residue outwards. [ ]: non-standard residue; d: D form. The star is where a group is joined. C20 diacid = O=C(O)CCCCCCCCCCCCCCCCCCC(=O)*; γGlu = O=C(O)[C@H](CCC(=O)[*:2])N[*:1]; NMeI = CC[C@H](C)[C@H](NC)C(=O)O; αMeL = CC(C)C[C@](C)(N)C(=O)O; AEEA = NCCOCCOCC(=O)O; Aib = CC(C)(N)C(=O)O

System: MHC-II presented peptides on human dendritic cells
Test: MAPPS assay (MHC-Associated Peptide Proteomics)
Assay type: cell-based
Conditions: for peptides displayed on MHC-II complexes: human dendritic cells from normal donors; for immunogenicity compared with SEQ ID NO:54: in the MAPPs assay and/or the T cell proliferation assay
Procedure: MAPPS profiles the MHC-II presented peptides on human dendritic cells treated with tested molecules. CD14+ cells, isolated from the PBMCs of normal human donors, were cultured and differentiated into immature DCs by incubation with IL-4 and GM-CSF. On day 4, culture media was replaced with fresh media containing tested molecules. On day 5, LPS was added to transform the cells into mature DCs. On day 6, cells were lysed in RIPA buffer with protease inhibitors. Immunoprecipitation of MHC-II complexes were performed using biotinylated anti-MHC-II antibody coupled to streptavidin beads. The bound complex was eluted and filtered. The isolated MHC-II peptides were analyzed by a mass spectrometer. Peptide identifications were generated by an internal proteomics pipeline using search algorithms with no enzyme and a bovine/human database with test sequences appended to the database. A KNIME workflow was used to process the identification files from the samples. Peptides identified from the test articles were aligned against the parent sequence of the test molecule. The output was used to determine the percentage of donors displaying MHC-II peptides from regions of the test molecule. Polypeptides comprising SEQ ID NOs:54, 49, 50, 29, 41, 45, 1, 22, 25 were tested in the MAPPs assay. […] Depending on the donors, up to three major clusters were observed, each slightly shifted from the others, altogether spanning residues 1-33.

[1] = donors displaying MHC-II peptides / donors tested
[2] = percentage of donors displaying MHC-II peptides

| MAPPS Assay >10 donors with diverse MHC [1] | MAPPS Assay >10 donors with diverse MHC [2] [%] | Compound | peptides displayed on MHC-II complexes | immunogenicity compared with SEQ ID NO:54 |
| --- | --- | --- | --- | --- |
| 8/30 | 27 | CC[C@H](C)[C@H](NC(C)=O)C(=O)N[C@H](C(=O)N[C@H](C(=O)N[C@@H](CO)C(=O)N[C@@](C)(CC(C)C)C(=O)N[C@@H](CC(=O)O)C(=O)N[C@@H](C(=O)N1CCC[C@H]1C(=O)N[C@H](C(=O)NCC(=O)N[C@@](C)(CC(C)C)C(=O)N[C@@H](CC(C)C)C(=O)N[C@@H](CCC(N)=O)C(=O)N[C@H](C(=O)N[C@@H](CCCCN)C(=O)N[C@@H](CC(C)C)C(=O)N[C@@H](CCC(=O)O)C(=O)N[C@@H](CCC(N)=O)C(=O)N[C@@H](CCC(=O)O)C(=O)N[C@@H](CCCNC(=N)N)C(=O)N[C@@H](C)C(=O)N[C@@H](CCC(=O)O)C(=O)N[C@@H](CCCCN)C(=O)N[C@@H](C)C(=O)N[C@@H](CCCNC(=N)N)C(=O)N[C@@H](CCC(N)=O)C(=O)N[C@@H](CCC(N)=O)C(=O)N[C@@H](C)C(=O)N[C@@H](CCCCNC(=O)COCCOCCNC(=O)COCCOCCNC(=O)CC[C@H](NC(=O)CCCCCCCCCCCCCCCCCCC(=O)O)C(=O)O)C(=O)N[C@@H](CCC(=O)O)C(=O)N[C@@H](CC(N)=O)C(=O)N[C@H](C(=O)N[C@@H](CCC(=O)O)C(=O)N[C@H](C(=O)N[C@@H](CC(C)C)C(=O)N[C@@H](C)C(=O)N[C@@H](CCC(N)=O)C(=O)N[C@H](C(N)=O)C(C)C)[C@@H](C)CC)[C@@H](C)O)[C@@H](C)CC)[C@@H](C)O)C(C)C)[C@@H](C)O)C(C)C [SEQ ID NO: 29, Ac-IVTS αMeL D (D-Val) PTG αMeL LQIKLEQERAEKARQ QAK((2-[2-(2-Amino-ethoxy)-ethoxy]-acetyl)2-γE-CO-(CH2)18-CO2H)ENTEILAQV-NH2] (Ac-IVTS[αMeL]D[dV]PTG[αMeL]LQIKLEQERAEKARQQAK([AEEA-AEEA-γGlu-C20 diacid])ENTEILAQV-NH2) | at least one peptide cluster on MHC-II complexes in a subset of donors | substantial improvements in immunogenicity over a compound comprising SEQ ID NO:54 |
| 6/26 | 23 | CC[C@H](C)[C@H](NC)C(=O)N[C@H](C(=O)N[C@H](C(=O)N[C@@H](CO)C(=O)N[C@@H](CC(C)C)C(=O)N[C@@H](CC(=O)O)C(=O)N[C@H](C(=O)N1CCC[C@H]1C(=O)N[C@H](C(=O)NCC(=O)N[C@@](C)(CC(C)C)C(=O)N[C@@H](CC(C)C)C(=O)N[C@@H](CCC(N)=O)C(=O)N[C@@H](CCCCN)C(=O)N[C@@H](CC(C)C)C(=O)N[C@H](C(=O)N[C@@H](CCC(=O)O)C(=O)N[C@@H](CCC(N)=O)C(=O)N[C@@H](CCC(=O)O)C(=O)N[C@@H](CCCCN)C(=O)N[C@@H](CCC(N)=O)C(=O)N[C@@H](CCC(=O)O)C(=O)N[C@@H](CCCCN)C(=O)N[C@@H](CCC(=O)O)C(=O)N[C@@H](CCCCN)C(=O)N[C@@H](CCC(N)=O)C(=O)N[C@@H](CCC(N)=O)C(=O)N[C@@H](C)C(=O)N[C@@H](CCCCNC(=O)COCCOCCNC(=O)COCCOCCNC(=O)CC[C@H](NC(=O)CCCCCCCCCCCCCCCCCCC(=O)O)C(=O)O)C(=O)N[C@@H](CCC(=O)O)C(=O)N[C@@H](CC(N)=O)C(=O)N[C@H](C(=O)N[C@@H](CCC(=O)O)C(=O)N[C@H](C(=O)N[C@@H](CC(C)C)C(=O)N[C@@H](C)C(=O)N[C@@H](CCC(N)=O)C(=O)N[C@H](C(N)=O)C(C)C)[C@@H](C)CC)[C@@H](C)O)[C@@H](C)CC)[C@@H](C)CC)C(C)C)[C@@H](C)O)C(C)C [SEQ ID NO: 49, (NMeI) VTSLDVPIG αMeL LQKLIEQEKQEKEKQQAK((2-[2-(2-Amino-ethoxy)-ethoxy]-acetyl)2-γE-CO-(CH2)18-CO2H)ENTEILAQV-NH2] (H-[NMeI]VTSLDVPIG[αMeL]LQKLIEQEKQEKEKQQAK([AEEA-AEEA-γGlu-C20 diacid])ENTEILAQV-NH2) | at least one peptide cluster on MHC-II complexes in a subset of donors | substantial improvements in immunogenicity over a compound comprising SEQ ID NO:54 |
| 0/10 | 0 | CC[C@H](C)[C@H](NC(C)=O)C(=O)N[C@H](C(=O)N[C@H](C(=O)N[C@@H](CO)C(=O)N[C@@](C)(CC(C)C)C(=O)N[C@@H](CC(=O)O)C(=O)N[C@@H](C(=O)N1CCC[C@H]1C(=O)N[C@H](C(=O)NC(C)(C)C(=O)N[C@@](C)(CC(C)C)C(=O)N[C@@H](CC(C)C)C(=O)N[C@@H](CCC(N)=O)C(=O)N[C@H](C(=O)N[C@@H](CCCCN)C(=O)N[C@@H](CC(C)C)C(=O)N[C@@H](CCC(=O)O)C(=O)N[C@@H](CCC(N)=O)C(=O)N[C@@H](CCC(=O)O)C(=O)N[C@@H](CCCNC(=N)N)C(=O)N[C@@H](C)C(=O)N[C@@H](CCC(=O)O)C(=O)N[C@@H](CCCCN)C(=O)N[C@@H](C)C(=O)N[C@@H](CCCNC(=N)N)C(=O)N[C@@H](CCC(N)=O)C(=O)N[C@@H](CCC(N)=O)C(=O)N[C@@H](C)C(=O)N[C@@H](CCCCNC(=O)COCCOCCNC(=O)COCCOCCNC(=O)CC[C@H](NC(=O)CCCCCCCCCCCCCCCCCCC(=O)O)C(=O)O)C(=O)N[C@@H](CCC(=O)O)C(=O)N[C@@H](CC(N)=O)C(=O)N[C@H](C(=O)N[C@@H](CCC(=O)O)C(=O)N[C@H](C(=O)N[C@@H](CC(C)C)C(=O)N[C@@H](C)C(=O)N[C@@H](CCC(N)=O)C(=O)N[C@H](C(N)=O)C(C)C)[C@@H](C)CC)[C@@H](C)O)[C@@H](C)CC)[C@@H](C)O)C(C)C)[C@@H](C)O)C(C)C [SEQ ID NO: 41, Ac-IVTS αMeL D (D-Val) PT Aib αMeL LQIKLEQERAEKARQQAK((2-[2-(2-Amino-ethoxy)-ethoxy]-acetyl)2-γE-CO-(CH2)18-CO2H)ENTEILAQV-NH2] (Ac-IVTS[αMeL]D[dV]PT[Aib][αMeL]LQIKLEQERAEKARQQAK([AEEA-AEEA-γGlu-C20 diacid])ENTEILAQV-NH2) | no peptides displayed on MHC-II complexes | substantial improvements in immunogenicity over a compound comprising SEQ ID NO:54 |
| 3/10 | 30 | CC[C@H](C)[C@H](NC)C(=O)N[C@H](C(=O)N[C@H](C(=O)N[C@@H](CO)C(=O)N[C@@H](CC(C)C)C(=O)N[C@@H](CC(=O)O)C(=O)N[C@H](C(=O)N1CCC[C@H]1C(=O)N[C@H](C(=O)NCC(=O)N[C@@](C)(CC(C)C)C(=O)N[C@@H](CC(C)C)C(=O)N[C@@H](CCC(N)=O)C(=O)N[C@@H](CCCCN)C(=O)N[C@@H](CC(C)C)C(=O)N[C@@H](CC(C)C)C(=O)N[C@@H](CCC(=O)O)C(=O)N[C@@H](CCC(N)=O)C(=O)N[C@@H](CCC(=O)O)C(=O)N[C@@H](CCCNC(=N)N)C(=O)N[C@@H](C)C(=O)N[C@@H](CCC(=O)O)C(=O)N[C@@H](CCCCN)C(=O)N[C@@H](C)C(=O)N[C@@H](CCCNC(=N)N)C(=O)N[C@@H](CCC(N)=O)C(=O)N[C@@H](CCC(N)=O)C(=O)N[C@@H](C)C(=O)N[C@@H](CCCCNC(=O)COCCOCCNC(=O)COCCOCCNC(=O)CC[C@H](NC(=O)CCCCCCCCCCCCCCCCCCC(=O)O)C(=O)O)C(=O)N[C@@H](CCC(=O)O)C(=O)N[C@@H](C)C(=O)N[C@@H](C)C(=O)N[C@@H](CCC(=O)O)C(=O)N[C@H](C(=O)N[C@@H](CC(C)C)C(=O)N[C@@H](C)C(=O)N[C@@H](CCC(N)=O)C(=O)N[C@H](C(N)=O)C(C)C)[C@@H](C)CC)[C@@H](C)CC)C(C)C)[C@@H](C)O)C(C)C [SEQ ID NO: 50, (NMeI) VTSLDVPIG αMeL LQKLLEQERAEKARQQAK((2-[2-(2-Amino-ethoxy)-ethoxy]-acetyl)2-γE-CO-(CH2)18-CO2H)EAAEILAQV-NH2] (H-[NMeI]VTSLDVPIG[αMeL]LQKLLEQERAEKARQQAK([AEEA-AEEA-γGlu-C20 diacid])EAAEILAQV-NH2) | at least one peptide cluster on MHC-II complexes in a subset of donors | substantial improvements in immunogenicity over a compound comprising SEQ ID NO:54 |
